This is an account of results in PubChem BioAssay AID449762 (Southern Research Specialized Biocontainment Screening …, 2010).

Records with an inconclusive call do not appear. Some results are limits rather than exact numbers.

This experiment concerns M. tuberculosis H37Rv growth inhibition, 7H9 media. In words: M. tuberculosis growth inhibition, HTS (AID 449762).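 On all read-outs here: bacterial growth assessed after seven days of incubation.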 Particulars: for IC90: measured here: IC90 growth inhibition.

A word on the IC50: it is the midpoint of a concentration-inhibition curve. The IC90 is the point of the concentration-response curve where the effect stands at 90%. Take `On1onc2c3cc(-c4ccccc4)nc3ccc21`: the IC50 was less than 0.2 µM and the IC90 was less than 0.2 µM. With `Cn1/c(=N/NC(=O)c2cccc(OC(F)F)c2)sc2ccccc21`, the IC50 is 2 µM and the IC90 amounted to 22.7 µM. The compound `N#C/C(=C1\CCCN1)c1nc(-c2ccccc2)cs1` yielded an IC90 of more than 100 µM.

With `Cc1nn(-c2ccccc2)c(Cl)c1C(=O)Nc1nnc(C2CCCCC2)s1`, the IC50 is 17.3 µM and the IC90 is more than 50 µM. Turning to `Cn1nc(C(F)(F)F)c2cc(NC(=O)OCC(C)(C)C)sc21`, the IC50 was 13.2 µM and the IC90 amounted to 40 µM. `COc1cc(/C=N/NC(=O)COc2ccc(C)cc2)ccc1OC(=O)c1cccs1`: the IC50 was 18.1 µM and the IC90 was determined as 30.2 µM. The like results for `Cn1c(=O)c(C(=O)NNC(=O)c2cccc(Cl)c2)c(O)c2ccccc21` were, in that order, 0.8 µM and 1.28 µM. Taken in the same sequence, the figures for `Clc1ccc(CCC(Cn2ccnc2)Sc2c(Cl)cccc2Cl)cc1` (stereo not given) were 7.79 µM and 14.3 µM. The like results for `Oc1ccccc1Nc1nc(NCc2ccccc2)c2ccccc2n1` were, in that order, 16.1 µM and 21.1 µM.

As for `NC(=S)NNc1ccc(Cl)c(Cl)c1`, the IC50 was 5.81 µM and the IC90 worked out at 9.42 µM.

The compound `Cc1ccc2[nH]c3c(c2c1)CN(C(=O)CN1CCN(c2ccccn2)CC1)CC3` yielded an IC90 of more than 100 µM.

Turning to `Fc1nc(F)c(F)c(NCCCNc2c(F)c(F)nc(F)c2F)c1F`, the IC50 was 37.7 µM and the IC90 was more than 100 µM. For the compound `Cc1cc2nc(/N=C(\N)NC(=O)C(C)C)nc(C)c2cc1C`, the IC50 was 4.67 µM and the 90% effect concentration (IC90) is 61.2 µM. Taken in the same sequence, the figures for `COc1ccc(COc2cc(-c3cccc(OC)c3)nc3ccc(NC(=O)c4ccc(OC)cc4)cc23)cc1` were 5.42 µM and more than 100 µM. Taken in the same sequence, the figures for `O=C(c1cccc([N+](=O)[O-])c1)N1CCN(c2ccc(N3CCOCC3)nn2)CC1` were 19.7 µM and 26.6 µM. Regarding `COc1cc(NC(C)CCCN)c2ncccc2c1` (stereo not given), the IC50 is 9.14 µM and the 90% effect concentration (IC90) amounted to 13.9 µM. For the compound `Cc1ccccc1Cn1ccc(=NCc2ccccc2)cc1`, the 50% inhibitory concentration (IC50) is 4.39 µM and the IC90 was determined as 12 µM. In the case of `COC(=O)COc1ccc(-c2ccccc2)cc1C=O`, the IC50 is 11 µM and the IC90 was 19 µM. Consider `COc1ccc(OCc2cccc(C(=O)Nn3cc([N+](=O)[O-])cn3)c2)cc1`, for which the IC50 is 9.92 µM and the IC90 worked out at 36.5 µM. As for `CN(C)C1(CNC(=O)Nc2ccc(Cl)c(Cl)c2)CCCCC1`, the IC50 is 11.2 µM and the IC90 was 12.5 µM. For the compound `Cc1cc(C)n(-c2ccc(C(=O)Oc3ccc4c(c3)OCO4)cc2)n1`, the IC50 is 4.02 µM and the IC90 stood at 13.3 µM. Consider `O=[N+]([O-])c1ccc(COc2ccc(-c3[nH]ncc3-c3ccc(Cl)cc3)c(O)c2)cc1`, for which the IC50 is 67.1 µM and the IC90 was more than 100 µM. For `O=C(Nc1ccc(OCC(F)(F)C(F)F)c(C(F)(F)F)c1)c1ccc(Cl)cc1`, the IC50 was 35.6 µM and the IC90 stood at 47.1 µM. For `c1ccc(CN2CCC3(CCCc4ccccc43)CC2)cc1`, the IC50 was 10.3 µM and the IC90 was 13.6 µM. As to `Cc1[nH]c2ccccc2c1/C=N/Nc1nc(Nc2ccccc2)nc(N2CCOCC2)n1`, the IC50 was 2.88 µM and the IC90 stood at 10 µM. Consider `CCOc1ccc(/C=N/OCC(=O)Nc2cc(C)on2)cc1`, for which the IC50 was 29.4 µM and the IC90 is more than 100 µM. Consider `CCN(CC)S(=O)(=O)c1ccc(/C=C/C(=O)OCC#N)cc1`, for which the IC50 was 6.59 µM and the IC90 was found to be 39.6 µM.

Take `Cc1nc2sccn2c(=O)c1CCN1CCC(=C(c2ccccc2)c2ccc(F)cc2)CC1`: the IC50 was 44.7 µM and the IC90 came out at 49.9 µM. Taken in the same sequence, the figures for `CN1C2CCC1/C(=C/c1ccccn1)C(=O)/C2=C\c1ccccn1` were 16.4 µM and 25.8 µM. Turning to `c1ccc(Cn2c(CNc3nc4ccccc4n3CCN3CCCCC3)nc3ccccc32)cc1`, the IC50 is 33.8 µM and the IC90 was 43.9 µM.

As for `CCCCC(O)(CCCC)C(=O)NN(C(=O)CCl)c1ccccc1`, the IC50 was 3.9 µM and the IC90 worked out at 10.5 µM. For the compound `Cn1nc([N+](=O)[O-])nc1Sc1ccc(C(C)(C)C)cc1`, the IC50 is 6.13 µM and the IC90 is 7.62 µM. Taken in the same sequence, the figures for `CC(=O)OCC1O[C@@H](O[C@@H]2C[C@H]3C(C)(C)[C@H](OC(C)=O)CC[C@]3(C)[C@H]3CC[C@]45C[C@]4(CC[C@H]5[C@@H](C)C[C@@H](O)[C@H](O)C(C)(C)O)[C@@]32C)[C@H](O)[C@@H](O)[C@@H]1O` (stereo not given in full) were 30.7 µM and 39.6 µM. On to `Fc1ccc2[nH]c3c(NCc4ccccc4)ncnc3c2c1`, for which the IC50 is 23.5 µM and the IC90 stood at 26.7 µM. On to `Cc1ccc2c(c1)c(C1=c3ccccc3=NC1=O)c(O)n2C`, for which the IC50 is 1.17 µM and the IC90 turned out to be 3.07 µM. The like results for `CNC(CC(C)C)C(=O)NC1C(=O)NC(CC(N)=O)C(=O)NC2C(=O)NC3C(=O)NC(C(=O)NC(C(=O)O)c4cc(O)cc(O)c4-c4cc3ccc4O)C(O)c3ccc(c(Cl)c3)Oc3cc2cc(c3OC2OC(CO)C(O)C(O)C2OC2C[C@](C)(N)C(O)C(C)O2)Oc2ccc(cc2Cl)C1O` (stereo not given in full) were, in that order, 1.01 µM and 4.42 µM. As to `COc1ccc(-c2cn3cc([N+](=O)[O-])ccc3n2)cc1OC`, the IC50 was 17.8 µM and the IC90 is more than 100 µM.

Turning to `Cc1ccc(S(=O)(=O)N(C)c2ccc(OCC(=O)OCc3ccc(C#N)cc3)cc2)cc1`, the IC50 was 8.71 µM and the IC90 was found to be 13.8 µM.

Turning to `C/C(=N\NC(=S)Nc1cccc(C)c1)c1cccc(N)c1`, the IC50 was 25.8 µM and the IC90 is 30.4 µM.

For the compound `CC(OC(=O)c1cnc2ccccc2n1)c1ccccc1Cl` (stereo not given), the IC50 is 13.1 µM and the IC90 turned out to be 37 µM. Consider `NC(=O)c1ccc(N=Cc2ccc([N+](=O)[O-])s2)cc1`, for which the IC50 is 12.6 µM and the IC90 came out at 13.6 µM.

In the case of `O=C1NCC(O)=C1C=Nc1ccccc1O`, the IC50 was 5.93 µM and the IC90 was 6.49 µM. For the compound `Cc1ccc(C)c(NC(CC(=O)c2ccccc2)C(=O)OCC(=O)c2cccs2)c1` (stereo not given), the IC50 was 5.16 µM and the IC90 amounted to 7.68 µM. In the case of `Nc1ccccc1C#CC(=O)c1ccccc1`, the IC50 was 1.11 µM and the IC90 was determined as 43.1 µM. Taken in the same sequence, the figures for `O=C(OCc1csc(Nc2ccccc2)n1)c1ccc(Cl)cc1` were 17.1 µM and 45.7 µM. Taken in the same sequence, the figures for `CN1C(=S)SC(N(O)C(=O)Nc2ccc(Cl)c(Cl)c2)C1(C)C` (stereo not given) were 22.8 µM and 25.6 µM. Turning to `O=C(C[C@@H]1C/C=C\C[C@H](NC(=O)OCC2c3ccccc3-c3ccccc32)C(=O)OC[C@H]2CCCN2C1=O)N[C@@H](CO)Cc1ccccc1`, the IC50 was 16.1 µM and the IC90 came to 28.2 µM.

`Nc1ccc2cc(Br)ccc2c1`: the IC50 was 51.8 µM and the IC90 came out at 84.9 µM. As to `Oc1ccccc1-c1nnc(COc2ccccc2)o1`, the 50% inhibitory concentration (IC50) was 7.64 µM and the IC90 is 34.7 µM. `CCOC(=O)CSc1nnc(NC(=O)c2ccc3c(c2)OCO3)s1`: the IC50 is 5.67 µM and the IC90 stood at 42.3 µM. As for `Cc1cc(C)cc(NC(=O)c2ccc(Cn3nc(C)c(Cl)c3C)o2)c1`, the IC50 was 30.8 µM and the IC90 was 41.9 µM.
